Laboratory results: patent publication EP2790511B1 (Merck Sharp & Dohme Corp., priority 2011, dated 2013)
Read-outs that look alike come from different tables or passages of the source.

Biological target: T1, hROMK (hKir1.1) (Homo sapiens, UniProt P48048)
T1 construct: expressed in transfected cells
T1 sequence (P48048 1-391): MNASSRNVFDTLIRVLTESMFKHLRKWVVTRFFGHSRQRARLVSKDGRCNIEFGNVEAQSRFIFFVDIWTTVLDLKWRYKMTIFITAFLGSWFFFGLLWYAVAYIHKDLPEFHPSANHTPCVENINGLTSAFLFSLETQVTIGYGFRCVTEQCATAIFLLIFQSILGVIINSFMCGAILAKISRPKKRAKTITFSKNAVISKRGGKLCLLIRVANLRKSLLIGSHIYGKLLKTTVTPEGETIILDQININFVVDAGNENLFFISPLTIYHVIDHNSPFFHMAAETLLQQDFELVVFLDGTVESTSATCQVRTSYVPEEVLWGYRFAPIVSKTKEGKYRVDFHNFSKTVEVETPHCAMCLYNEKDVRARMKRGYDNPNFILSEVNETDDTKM
Assay: Thallium Flux Assay
Format: cell-based
Protocol: Cell Culture Conditions- HEK293 cells stably expressing hROMK (hKir1.1) were grown at 37°C in a 10%CO2 humidified incubator in complete growth media: Dulbecco's Modified Eagle Medium supplemented with non-essential amino acids, Penicillin/Streptomycin/Glutamine, G418 and FBS. At >80% confluency, aspirate the media from the flask and rinse with 10 mL Calcium/Magnesium-free PBS. […] To dislodge the cell, gently bang the side of the flask with your hand. Triturate the cells completely and then transfer the cells to 25 mL complete media. Centrifuge at 1,500 rpm for 6 min followed by resuspension in complete growth media and determine cell concentration. […] Under ideal growth conditions and appropriate tissue culture practices, this cell line is stable for 40-45 passages.
• FluxOR™ Reagent (Component A) • FluxOR™ Assay Buffer (Component B) - 10X Concentrate • PowerLoad™ Concentrate (Component C) - 100X Concentrate • Probenecid (Component D) - Lyophilized sample is kept at -20°C. Water soluble, 100X after solubilization in 1 mL water. […] Store at 4°C. • Thallium sulfate (Tl2SO4) Concentrate (Component G) - 50 mM in water. Store at 4°C • DMSO (dimethyl sulfoxide, Component H) - 1 mL (100%)
• 1000X FluxOR™ Reagent: Reconstitute a vial of component A in 100 µl DMSO; Mix well; Store 10 µl aliquots at -20°C • 1X FluxOR™ Assay Buffer: Dilute Component B 10-fold with water; Adjust pH to 7.4 with Hepes/NaOH; Filter and store at 4°C • Probenecid/Assay Buffer: 100 mL of 1X FluxOR™ Assay Buffer; 1 mL of reconstituted component D; Store at 4°C • Loading Buffer (per microplate): 10 µl 1000X FluxOR™ Reagent; 100 µl component C; 10 mL Probenecid/Assay Buffer • Compound Buffer (per microplate): 20 mL Probenecid/Assay Buffer; 0.3 mM ouabain (10 mM ouabain in water can be stored in amber bottle/aluminum foil at room temperature); Test compound • 1X FluxOR™Chloride-Free Buffer: Prepare 1X working solution in water. Can be stored at room temperature • Stimulant Buffer (prepared at 5X final concentration in 1X FluxOR™Chloride-Free Buffer): 7.5 mM Thallium sulfate and 0.75 mM Potassium sulfate (to give a final assay concentration of 3 mM Thallium/ 0.3 mM Potassium). Store at 4°C when not in use. If kept sterile, this solution is good for months.
Assay protocol- The ROMK channel functional thallium flux assay is performed in 384 wells, using the FLIPR-Tetra instrument. HEK-hKir1.1 cells are seeded in Poly-D-Lysine microplates and kept in a 37°C-10%CO2 incubator overnight. On the day of the experiment, the growth media is replaced with the FluxOR™ reagent loading buffer and incubated, protected from light, at ambient temperature (23-25°C) for 90 min. The loading buffer is replaced with assay buffer ± test compound followed by 30 min incubation at ambient temperature, where the Thallium/Potassium stimulant is added to the microplate.
• 1. Seed HEK-hKir1.1 cells (50 µl at 20,000 cells/well) in 384-well PDL coated Microplates • 2. Allow cells to adhere overnight in humidified 37°C/10%CO2 incubator • 3. Completely remove cell growth media from microplate and replace with 25 µl loading buffer • 4. Incubate Microplate at room temperature, protected form light, for 90 min • 5. Remove loading buffer and replace with 25 µl 1x Assay Buffer ± test compound. • 6. Incubate microplate at room temperature, protected form light, for 30 min • 7. […] Excitation = 400 nm, Emission = 460 & 580 nm. Collect data for ∼ 10 min.
Data Calculation- The fluorescence intensity of wells containing 3 µM of a standard control ROMK inhibitor of the present invention is used to define the ROMK-sensitive component of thallium flux. Fluorescence in the presence of test compounds is normalized to control values to provide % fluorescence change.

[1] = HEK293 cells stably expressing hROMK (hKir1.1), FLIPR-Tetra, read-out: Thallium Flux IC50

**Q.** How did the IC50 [1] turn out when `Cc1nc(-n2cnnn2)nc(C)c1CC(=O)N1CCN2C[C@H](c3ccc(F)c(C#N)c3C)OC[C@@H]2C1` [Example 150, 3-[(3S,9aS)-8-{[4,6-dimethyl-2-(1H-tetrazol-1-yl)pyrimidin-5-yl]acetyl}octahydropyrazino[2,1-c][1,4]oxazin-3-yl]-6-fluoro-2-methylbenzonitrile] was run?
**A.** The IC50 was 290 nM.

**Q.** With `Cc1c([C@H]2CN3CCN(C(=O)Cc4ccc(-n5cnnn5)cn4)C[C@H]3CO2)csc1C#N` [Example 71, 3-methyl-4-[(3S,9aS)-8-{[5-(1H-tetrazol-1-yl)pyridin-2-yl]acetyl}octahydropyrazino[2,1-c][1,4]oxazin-3-yl]thiophene-2-carbonitrile] as the molecule, how does the IC50 [1] read?
**A.** Its IC50 is 390 nM.

**Q.** For `Cc1c(C#N)cccc1[C@@H]1CN2CCN(C(=O)Cc3cnc(-n4cnnn4)nc3)C[C@@H]2CO1` [Example 116, 2-methyl-3-[(3R,9aR)-8-{[2-(1H-tetrazol-1-yl)pyrimidin-5-yl]acetyl}octahydropyrazino[2,1-c] [1,4]oxazin-3-yl]benzonitrile], which IC50 [1] is on record?
**A.** Its IC50 is 330 nM.

**Q.** With `Cc1c([C@@H]2CN3CCN(C(=O)Nc4ccc(-n5cnnn5)nc4)C[C@H]3CO2)ccc(F)c1C#N` [Example 198, (3R,9aS)-3-(3-cyano-4-fluoro-2-methylphenyl)-N-[6-(1H-tetrazol-1-yl)pyridin-3-yl]hexahydropyrazino[2,1-c][1,4]oxazine-8(1H)-carboxamide] as the molecule, how does the IC50 [1] read?
**A.** Its IC50 is 160 nM.

**Q.** `Cc1c([C@@H]2CN3CCN(C(=O)Cc4cnc(-n5cnnn5)c(F)c4)C[C@@H]3CO2)ccc(F)c1C#N` [Example 146, 6-fluoro-3-[(3R,9aR)-8-{[5-fluoro-6-(1H-tetrazol-1-yl)pyridin-3-yl]acetyl}octahydropyrazino[2,1-c][1,4]oxazin-3-yl]-2-methylbenzonitrile] was tested. Which IC50 [1] did it give?
**A.** The IC50 was 90 nM.

**Q.** For `Cc1c([C@@H]2CN3CCN(C(=O)Cc4ccc(-n5cnnn5)nc4)C[C@H]3CO2)ccc2c1COC2=O` [Example 22, 4-methyl-5-[(3R,9a,S)-8-{[6-(1H-tetrazol-1-yl)pyridin-3-yl]acetyl}octahydropyrazino[2,1-c][1,4]oxazin-3-y]-2-benzofuran-1(3H)-one], which IC50 (Thallium Flux IC50) is on record?
**A.** The IC50 was 160 nM.

**Q.** `Cc1c([C@H]2CN3CCN(C(=O)Cc4cnc(-n5cnnn5)cn4)C[C@H]3CO2)ccc(F)c1C#N` [Example 76, 6-fluoro-2-methyl-3-[(3S,9aS)-8-{[5-(1H-tetrazol-1-yl)pyrazin-2-yl]acetyl}octahydropyrazino[2,1-c][1,4]oxazin-3-yl]benzonitrile] was tested. Which IC50 (Thallium Flux IC50) did it give?
**A.** Its IC50 is 150 nM.

**Q.** With `COc1cc([C@H]2CN3CCN(C(=O)Cc4ccc(-n5cnnn5)nc4)C[C@@H]3CO2)ccc1C#N` [Example 39, 2-methoxy-4-[(3S,9aR)-8-{[6-(1H-tetrazol-1-yl)pyridin-3-yl]acetyl}octahydropyrazino[2,1-c][1,4]oxazin-3-yl]benzonitrile] as the molecule, how does the IC50 [1] read?
**A.** Its IC50 is 260 nM.

**Q.** With `Cc1nc(-n2cnnn2)ncc1CC(=O)N1CCN2C[C@H](c3ccc(F)c(C#N)c3C)OC[C@H]2C1` [Example 119, 6-fluoro-2-methyl-3-[(3S,9aR)-8-{[4-methyl-2-(1H-tetrazol-1-vl)pvrimidin-5-yl]acetyl}octahydropyrazino[2,1-c][1,4]oxazin-3-yl]benzonitrile] as the molecule, how does the IC50 (Thallium Flux IC50) read?
**A.** Its IC50 is 330 nM.

**Q.** Which IC50 [1] does the source give for `O=C(Cc1ccc(-n2cnnn2)nc1)N1CCN2C[C@@H](c3cccc(-n4cnnn4)c3)OC[C@@H]2C1` [Example 103, (3R,9aS)-3-[3-(1H-tetrazol-1-yl)phenyl]-8-{[6-(1H-tetrazol-1-vl)pvridin-3-yl]acetyl}octahydropyrazino[2,1-c][1,4]oxazine] here?
**A.** The IC50 was 340 nM.

**Q.** Which IC50 (Thallium Flux IC50) does the source give for `O=C1OCCc2cc([C@@H]3CN4CCN(C(=O)Cc5cnc(-n6cnnn6)nc5)C[C@H]4CO3)ccc21` [Example 145, 6-[(3R,9aS)-8-{[2-(1H-tetrazol-1-yl)pyrimidin-5-yl]acetyl}octahydropyrazino[2,1-c][1,4]oxazin-3-yl]-3,4-dihydro-1H-isochromen-1-one] here?
**A.** Its IC50 is 240 nM.

**Q.** Which IC50 [1] does the source give for `Cc1cc(CC(=O)N2CCN3C[C@@H](c4ccc(F)c(C#N)c4C)OC[C@H]3C2)ncc1-n1cnnn1` [Example 129, 6-fluoro-2-methyl-3-[(3R,9aR)-8-{[4-methyl-5-(1H-tetrazol-1-yl)pyridin-2-yl]acetyl}octahydropyrazino[2,1-c][1,4]oxazin-3-yl]benzonitrile] here?
**A.** The IC50 was 250 nM.

**Q.** `Cc1c([C@@H]2CN3CCN(C(=O)Cc4cnc(-n5cnnn5)nc4)C[C@H]3CO2)ccc(F)c1C#N` [Example 14] was tested. Which IC50 (Thallium Flux IC50) did it give?
**A.** Its IC50 is 80 nM.

**Q.** `Cc1c([C@@H]2CN3CCN(C(=O)Cc4cccc(-n5cnnn5)n4)C[C@@H]3CO2)ccc(F)c1C#N` [Example 161, 6-fluoro-2-methyl-3-[(3R,9aR)-8-{[6-(1H-tetrazol-1-yl)pyridin-2-yl]acetyl}octahydropyrazino[2,1-c][1,4]oxazin-3-yl]benzonitrile] was tested. Which IC50 [1] did it give?
**A.** The IC50 was 350 nM.

**Q.** How did the IC50 [1] turn out when `COc1cc([C@@H]2CN3CCN(C(=O)Cc4ccc(-n5cnnn5)nc4)C[C@@H]3CO2)ccc1C#N` [Example 40, 2-methoxy-4-[(3R,9aR)-8-{[6-(1H-tetrazol-1-yl)pyridin-3-yl]acetyl}octahydropyrazino[2,1-c][1,4]oxazin-3-yl]benzonitrile] was run?
**A.** The IC50 was 70 nM.

**Q.** `N#Cc1c(F)ccc([C@H]2CN3CCN(C(=O)Cc4ccc(-n5cnnn5)nc4)C[C@@H]3CO2)c1F` [Example 87, 2,6-difluoro-3-[(3S,9aR)-8-{[6-(1H-tetrazol-1-yl)pyridin-3-yl]acetyl}octahydropyrazino[2,1-c][1,4]oxazin-3-yl]benzonitrile] was tested. Which IC50 (Thallium Flux IC50) did it give?
**A.** The IC50 was 220 nM.

**Q.** `O=C(Cc1ccc(-n2cnnn2)nc1)N1CCN2C[C@H](c3ccc4nonc4c3)OC[C@@H]2C1` [Example 180, (3S,9aS)-3-(2,1,3-benzoxadiazol-5-yl)-8-{[6-(1H-tetrazol-1-vl)pvridin-3-yl]acetyl}octahydropyrazino[2,1-c][1,4]oxazine] was tested. Which IC50 (Thallium Flux IC50) did it give?
**A.** The IC50 was 590 nM.

**Q.** With `Cc1c([C@@H]2CN3CCN(C(=O)Cc4ccc(-n5cnnn5)nc4)C[C@@H]3CO2)ccc2c1COC2=O` [Example 23] as the molecule, how does the IC50 (Thallium Flux IC50) read?
**A.** The IC50 was 70 nM.

**Q.** How did the IC50 [1] turn out when `Cc1c([C@@H]2CN3CCN(C(=O)Cc4cccc(-n5cnnn5)n4)C[C@H]3CO2)ccc(F)c1C#N` [Example 98, 6-fluoro-2-methyl-3-[(3R,9aS)-8-{[6-(1H-tetrazol-1-yl)pyridin-2-yl]acetyl}octahydropyrazino[2,1-c][1,4]oxazin-3-yl]benzonitrile] was run?
**A.** Its IC50 is 560 nM.

**Q.** How did the IC50 (Thallium Flux IC50) turn out when `Cc1c([C@H]2CN3CCN(C(=O)Cc4cnc(-n5cnnn5)cn4)C[C@H]3CO2)ccc2c1COC2=O` [Example 83] was run?
**A.** The IC50 was 160 nM.

**Q.** Which IC50 (Thallium Flux IC50) does the source give for `C[C@H]1Cc2cc([C@@H]3CN4CCN(C(=O)Cc5cnc(-n6cnnn6)nc5)C[C@H]4CO3)ccc2C(=O)O1` [Example 20, (3S)-3-methyl-6-[(3R,9aS)-8-{[2-(1H-tetrazol-1-yl)pyrimidin-5-yl]acetyl}octahydropyrazino[2,1-c][1,4]oxazin-3-yl]-3,4-dihydro-1H-isochromen-1-one] here?
**A.** The IC50 was 170 nM.
